Read-outs that look alike come from different tables or passages of the source.
How the values were obtained:
LPS-induced fever = experiment: Antipyretic activity, fever induced by LPS in rats; format: in vivo, Sprague Dawley rats
Procedure: The body temperature of rats was taken at 0 (2 hours after the challenge), 90 min, 180 min, and 270 min after the administration of the test compounds.

H1N1 virus [1] = experiment: H1N1 virus infection mouse model (Example 66); format: in vivo, mice; settings: transdermal once a day
Procedure: A total of seventy mice (7 groups, 10/group) were used in this study. At day 0, mice were anesthetized with isoflurane and held in a dorsal recumbent position for administration of 0.1×TCID50/mouse virus (new batch) by internasal instillation, from day 2 post challenge, mice were received a single dose of different concentrations of test article or vehicle control once a day up to 15th day with dose initiation on day 2 post challenge. Group 1 served as an infected control group and was treated with vehicle (35% ethanol). […] Mice were observed following viral challenge for clinical signs of illness including body weights, health score, morbidity and mortality.
Lung lesions and peribronchiolitis of all deceased and surviving animals were characterized (Table 9).

[2] = rabbit
paw edema = experiment: Antiinflammatory activity, carrageenan paw edema in rats; format: in vivo, Wistar Rats; settings: topical, 100 mg/kg
H1N1 virus [3] = experiment: H1N1 virus infection mouse model (Example 68); format: in vivo, mice; settings: transdermal once a day
Procedure: A total of seventy mice (7 groups, 10/group) were used in this study. At day 0, mice were anesthetized with isoflurane and held in a dorsal recumbent position for administration of 0.1×TCID50/mouse virus (new batch) by internasal instillation, from day 2 post challenge, mice were received a single dose of different concentrations of test article or vehicle control once a day up to 15th day with dose initiation on day 2 post challenge. Group 1 served as an infected control group and was treated with vehicle (35% ethanol). 7% (pyrrolidin-2-yl)methyl 5-(2,4-difluorophenyl) salicylate hydrochloride in 35% ethanol (low dose: 25.0 mg/kg, group 2, mid dose: 49.9 mg/kg, group 3, and high dose: 99.8 mg/kg, group 4) and 7% (pyrrolidin-2-yl)methyl 5-(2,4-difluorophenyl) acetylsalicylate hydrochloride in 35% ethanol (low dose: 24.7 mg/kg, group 5, mid dose: 49.4 mg/kg, group 6, and high dose: 98.7 mg/kg, group 7) and vehicle (35% ethanol) were given by transdermal on the back of animal in an area of 2 cm×5 cm, 1.5 cm×3.5 cm, or 1 cm×2.5 cm for high, middle or low dose. Mice were observed following viral challenge for clinical signs of illness including body weights, health score, morbidity and mortality.
Lung lesions and peribronchiolitis of all deceased and surviving animals were characterized (Table 13).

H1N1 virus [4] = experiment: H1N1 virus infection mouse model (Example 67); format: in vivo, mice; settings: transdermal once a day
Procedure: A total of seventy mice (7 groups, 10/group) were used in this study. At day 0, mice were anesthetized with isoflurane and held in a dorsal recumbent position for administration of 0.1×TCID50/mouse virus (new batch) by internasal instillation, from day 2 post challenge, mice were received a single dose of different concentrations of test article or vehicle control once a day up to 15th day with dose initiation on day 2 post challenge. Group 1 served as an infected control group and was treated with vehicle (35% ethanol). 7% of (pyrrolidin-2-yl)methyl 2-[(2,3-dimethylphenyl)amino]benzoate hydrochloride in 35% ethanol (low dose: 25.0 mg/kg, group 2, mid dose: 50.1 mg/kg, group 3, and high dose: 100.1 mg/kg, group 4) and 7% of (pyrrolidin-2-yl)methyl α-methyl-4-(2-thienylcarbonyl)benzeneacetate hydrochloride in 35% ethanol (low dose: 24.9 mg/kg, group 5, mid dose: 49.8 mg/kg, group 6, and high dose: 99.6 mg/kg, group 7) and vehicle (35% ethanol) were given by transdermal on the back of animal in an area of 2 cm×5 cm, 1.5 cm×3.5 cm, or 1 cm×2.5 cm for high, middle or low dose. Mice were observed following viral challenge for clinical signs of illness including body weights, health score, morbidity and mortality.
Lung lesions and peribronchiolitis of all deceased and surviving animals were characterized (Table 11).

SMILES	The cumulative amount of test compounds ([2]; 1 h)	The cumulative amount of test compounds ([2]; 2 h)	The cumulative amount of test compounds ([2]; 4 h)	The cumulative amount of test compounds ([2]; 8 h)	also measured
CC(C(=O)OCC1CCCN1)c1ccc(-c2ccccc2)c(F)c1.Cl (centres unmarked) [Example 15, (pyrrolidin-2-yl)methyl 2-(2-fluorobiphenyl-4-yl) propanoate hydrochloride]					body temperature (Mean) (LPS-induced fever; T = 0 min (2 hours after LPS challenge), transdermal, 20 mg/kg): 38.30; body temperature (Mean) (LPS-induced fever; T = 90 min, transdermal, 20 mg/kg): 37.37; body temperature (Mean) (LPS-induced fever; T = 180 min, transdermal, 20 mg/kg): 36.78; body temperature (Mean) (LPS-induced fever; T = 270 min, transdermal, 20 mg/kg): 36.65; survival (H1N1 virus [1]; group 2, low dose 25.0 mg/kg): 40%; survival (H1N1 virus [1]; group 3, mid dose 50.0 mg/kg): 50%; survival (H1N1 virus [1]; group 4, high dose 100.0 mg/kg): 60%
O=C(O)Cc1ccccc1Nc1c(Cl)cccc1Cl [Parent drug-8]	0.000 mg	0.001 mg	0.002 mg	0.003 mg	
CCN(CC)CCOC(=O)CC1(CS[C@H](CCc2ccccc2C(C)(C)O)c2cccc(C=Cc3ccc4ccc(Cl)cc4n3)c2)CC1.Cl [Example 3]	0.36 mg	0.78 mg	1.77 mg	3.87 mg	
CC(=O)O.CCN(CC)CCOC(=O)CC1=C(C)/C(=C/c2ccc([S+](C)[O-])cc2)c2ccc(F)cc21 (centres unmarked) [Example 8]					survival (H1N1 virus [1]; group 5, low dose 25.5 mg/kg): 60%; survival (H1N1 virus [1]; group 6, mid dose 50.9 mg/kg): 70%; survival (H1N1 virus [1]; group 7, high dose 101.9 mg/kg): 50%
CCCc1c(OCCCS(=O)(=O)c2ccc(C(=O)CCC(=O)OCC3CCCN3)cc2)ccc(C(C)=O)c1O.Cl (centres unmarked) [Example 19]	0.50 mg	1.02 mg	2.18 mg	4.48 mg	
CC(c1cc2ccccc2s1)N(O)C(N)=O (centres unmarked) [Parent drug-6]	0.001 mg	0.001 mg	0.001 mg	0.003 mg	
CCCc1c(OCCCS(=O)(=O)c2ccc(C(=O)CCC(=O)O)cc2)ccc(C(C)=O)c1O [Parent drug-1]	0.000 mg	0.001 mg	0.001 mg	0.002 mg	
CN(C)C(=O)CCS[C@H](SCCC(=O)O)c1cccc(/C=C/c2ccc3ccc(Cl)cc3n2)c1 [Parent drug-4]	0.001 mg	0.001 mg	0.001 mg	0.002 mg	
CC(C)c1ccc2c(c1)c(SC(C)(C)C)c(CC(C)(C)C(=O)O)n2Cc1ccc(Cl)cc1 [Parent drug-2]	0.001 mg	0.001 mg	0.001 mg	0.003 mg	
CC(C)Cc1ccc(C(C)C(=O)O)cc1 (centres unmarked) [Ibuprofen, reference compound]					body temperature (Mean) (LPS-induced fever; T = 0 min (2 hours after LPS challenge), group C, topical, 100 mg/kg, 7% in 70% ethanol): 38.18; body temperature (Mean) (LPS-induced fever; T = 90 min, group B, oral, 100 mg/kg): 38.01; body temperature (Mean) (LPS-induced fever; T = 90 min, group C, topical, 100 mg/kg, 7% in 70% ethanol): 38.26; body temperature (Mean) (LPS-induced fever; T = 180 min, group B, oral, 100 mg/kg): 37.34; body temperature (Mean) (LPS-induced fever; T = 180 min, group C, topical, 100 mg/kg, 7% in 70% ethanol): 38.27; body temperature (Mean) (LPS-induced fever; T = 270 min, group B, oral, 100 mg/kg): 37.02; body temperature (Mean) (LPS-induced fever; T = 270 min, group C, topical, 100 mg/kg, 7% in 70% ethanol): 37.98; antipyretic activity (in words) (LPS-induced fever; topical, 100 mg/kg): did not show any antipyretic activity; anti-inflammatory activity (in words) (paw edema): did not show any anti-inflammatory activity
CC(=O)Oc1ccc(-c2ccc(F)cc2F)cc1C(=O)OCC1CCCN1.Cl (centres unmarked) [Example 28, (pyrrolidin-2-yl)methyl 5-(2,4-difluorophenyl) acetylsalicylate hydrochloride]					survival (H1N1 virus [3]; group 5, low dose 24.7 mg/kg): 40%; survival (H1N1 virus [3]; group 6, mid dose 49.4 mg/kg): 60%; survival (H1N1 virus [3]; group 7, high dose 98.7 mg/kg): 70%
CC(C(=O)OCC1CCCN1)c1ccc(C(=O)c2cccs2)cc1.Cl (stereo not drawn) [Example 33, (pyrrolidin-2-yl)methyl α-methyl-4-(2-thienylcarbonyl)benzeneacetate hydrochloride]					survival (H1N1 virus [4]; group 5, low dose 24.9 mg/kg): 60%; survival (H1N1 virus [4]; group 6, mid dose 49.8 mg/kg): 50%; survival (H1N1 virus [4]; group 7, high dose 99.6 mg/kg): 40%
Cc1cccc(Nc2ccccc2C(=O)OCC2CCCN2)c1C.Cl (centres unmarked) [Example 17, (pyrrolidin-2-yl)methyl 2-[(2,3-dimethylphenyl)amino]benzoate hydrochloride]					survival (H1N1 virus [4]; group 2, low dose 25.0 mg/kg): 30%; survival (H1N1 virus [4]; group 3, mid dose 50.1 mg/kg): 50%; survival (H1N1 virus [4]; group 4, high dose 100.1 mg/kg): 50%
O=C(O)C(c1ccc(OCc2ccc3ccccc3n2)cc1)C1CCCC1 (centres unmarked) [Parent drug-5]	0.001 mg	0.001 mg	0.001 mg	0.002 mg	
Cl.O=C(OCC1CCCN1)c1cc(-c2ccc(F)cc2F)ccc1O (centres unmarked) [Example 27, (pyrrolidin-2-yl)methyl 5-(2,4-difluorophenyl) salicylate hydrochloride]					survival (H1N1 virus [3]; group 2, low dose 25.0 mg/kg): 30%; survival (H1N1 virus [3]; group 3, mid dose 49.9 mg/kg): 50%; survival (H1N1 virus [3]; group 4, high dose 99.8 mg/kg): 60%
CN(C)C(=O)CCSC(SCCC(=O)OCC1CCCN1)c1cccc(/C=C/c2ccc3ccc(Cl)cc3n2)c1.Cl (centres unmarked) [Example 7, (pyrrolidin-2-yl)methyl 3-[[3-[(E)-2-(7-chloroquinolin-2-yl)ethenyl]phenyl]-[3-(dimethylamino)-3-oxopropyl]sulfanylmethyl]sulfanylpropanoate hydrochloride]	0.46 mg	1.01 mg	2.09 mg	4.29 mg	
Cl.O=C(OCC1CCCN1)C(c1ccc(OCc2ccc3ccccc3n2)cc1)C1CCCC1 (centres unmarked) [Example 6, (pyrrolidin-2-yl)methyl 2-cyclopentyl-2-[4-(quinolin-2-ylmethoxy)phenyl]acetate hydrochloride]	0.52 mg	1.03 mg	2.10 mg	4.19 mg	

Reference: patent US20260248922A1, “TREATMENT OF SIGNS, SYMPTOMS AND/OR COMPLICATIONS OF VIRAL, BACTERIAL, PROTOZOAL, AND/OR FUNGAL INFECTIONS BY HIGH PENETRATION PRODRUGS” (priority 2022, published 2026)
